Here are results for 3 compounds from paper PMC4658394 (ChemMedChem, 2015).

Broadly, the IC50 is the point on the concentration scale where inhibition reaches its midpoint.

Experiment [1] has as its target MMP-12 (Homo sapiens, UniProt P39900). Description: MMP-12 fluorogenic substrate assay with competing metalloprotein MT. The note with it: MMP-12 0.68 nM.
Experiment [2] deals with T1, HDAC-6 (Homo sapiens, UniProt Q9UBN7).
T1 sequence (Q9UBN7 1-1215): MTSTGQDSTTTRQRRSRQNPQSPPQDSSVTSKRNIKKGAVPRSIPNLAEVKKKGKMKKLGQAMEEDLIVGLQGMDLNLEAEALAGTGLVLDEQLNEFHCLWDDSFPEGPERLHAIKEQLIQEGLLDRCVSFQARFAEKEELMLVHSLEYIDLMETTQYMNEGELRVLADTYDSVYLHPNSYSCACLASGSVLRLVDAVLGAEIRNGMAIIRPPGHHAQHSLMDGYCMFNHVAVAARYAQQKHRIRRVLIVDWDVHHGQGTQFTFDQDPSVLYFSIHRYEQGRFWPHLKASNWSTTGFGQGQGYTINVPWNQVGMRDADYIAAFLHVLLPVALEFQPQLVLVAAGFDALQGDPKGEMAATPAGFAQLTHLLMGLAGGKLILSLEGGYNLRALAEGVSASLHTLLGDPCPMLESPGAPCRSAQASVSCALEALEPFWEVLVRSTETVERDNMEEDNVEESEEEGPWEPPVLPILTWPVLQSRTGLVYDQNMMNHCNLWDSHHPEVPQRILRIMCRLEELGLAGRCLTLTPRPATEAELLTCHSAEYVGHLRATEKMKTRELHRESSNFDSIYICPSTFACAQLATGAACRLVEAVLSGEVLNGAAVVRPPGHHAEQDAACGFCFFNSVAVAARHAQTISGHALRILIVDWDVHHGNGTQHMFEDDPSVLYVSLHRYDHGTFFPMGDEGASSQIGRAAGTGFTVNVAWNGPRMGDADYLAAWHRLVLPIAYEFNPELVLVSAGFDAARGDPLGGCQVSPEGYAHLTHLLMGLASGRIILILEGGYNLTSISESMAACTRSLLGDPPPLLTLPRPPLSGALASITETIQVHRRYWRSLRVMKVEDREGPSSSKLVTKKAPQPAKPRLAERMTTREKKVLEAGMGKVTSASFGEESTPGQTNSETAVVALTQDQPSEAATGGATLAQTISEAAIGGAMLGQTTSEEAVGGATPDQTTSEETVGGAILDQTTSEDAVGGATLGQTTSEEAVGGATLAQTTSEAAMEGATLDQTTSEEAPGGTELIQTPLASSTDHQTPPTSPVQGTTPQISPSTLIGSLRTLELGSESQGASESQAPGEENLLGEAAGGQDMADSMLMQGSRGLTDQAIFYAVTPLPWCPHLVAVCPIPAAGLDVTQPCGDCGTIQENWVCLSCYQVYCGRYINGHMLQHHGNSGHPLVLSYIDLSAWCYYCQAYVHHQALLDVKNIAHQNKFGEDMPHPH
The experiment in a line: HDAC-6 fluorogenic assay with competing metalloprotein MT. The experiment is classed as biochemical. The note with it: 22 nM SAHA, HDAC-6 0.16 μM, various concentrations of MT.

The target of experiment [3] is HDAC-1 (Homo sapiens, UniProt Q13547). The experiment in a line: HDAC-1 fluorogenic assay with competing metalloprotein MT. The experiment is classed as biochemical. To be noted: 53 nM SAHA, HDAC-1 0.25 μM, various concentrations of MT.
HDAC-1, sequence (Q13547 whole entry): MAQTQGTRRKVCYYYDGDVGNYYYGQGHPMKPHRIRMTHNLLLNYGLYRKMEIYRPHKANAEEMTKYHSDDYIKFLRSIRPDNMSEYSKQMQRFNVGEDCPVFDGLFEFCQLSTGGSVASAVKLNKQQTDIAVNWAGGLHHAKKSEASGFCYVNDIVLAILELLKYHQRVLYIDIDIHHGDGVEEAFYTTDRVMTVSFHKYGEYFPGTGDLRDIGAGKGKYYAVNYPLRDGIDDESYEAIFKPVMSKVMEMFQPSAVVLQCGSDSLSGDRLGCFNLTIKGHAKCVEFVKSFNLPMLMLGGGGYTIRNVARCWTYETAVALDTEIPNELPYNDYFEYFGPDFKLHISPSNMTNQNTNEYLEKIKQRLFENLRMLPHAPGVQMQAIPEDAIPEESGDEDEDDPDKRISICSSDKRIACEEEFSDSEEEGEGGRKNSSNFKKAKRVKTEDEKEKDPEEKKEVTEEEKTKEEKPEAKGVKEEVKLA
Experiment [4] concerns the target T2, MMP-2 (Homo sapiens, UniProt P08253).
T2 sequence (P08253 110-660): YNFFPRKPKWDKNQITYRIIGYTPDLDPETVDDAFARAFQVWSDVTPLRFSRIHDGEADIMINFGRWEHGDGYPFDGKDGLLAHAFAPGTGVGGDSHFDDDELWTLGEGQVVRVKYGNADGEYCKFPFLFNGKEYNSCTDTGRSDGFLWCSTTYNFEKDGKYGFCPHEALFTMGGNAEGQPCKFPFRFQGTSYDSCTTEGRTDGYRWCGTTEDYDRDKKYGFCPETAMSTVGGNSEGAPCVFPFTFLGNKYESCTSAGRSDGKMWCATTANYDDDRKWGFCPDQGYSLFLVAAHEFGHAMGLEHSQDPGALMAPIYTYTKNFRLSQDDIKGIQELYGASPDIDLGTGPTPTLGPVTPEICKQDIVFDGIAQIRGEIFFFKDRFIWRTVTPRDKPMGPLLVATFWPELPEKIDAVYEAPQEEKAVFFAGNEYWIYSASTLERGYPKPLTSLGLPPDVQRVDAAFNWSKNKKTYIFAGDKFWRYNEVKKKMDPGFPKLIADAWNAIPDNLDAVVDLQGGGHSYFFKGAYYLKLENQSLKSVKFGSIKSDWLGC
Description: MMP-2 fluorogenic substrate assay with competing metalloproteins. The experiment is classed as biochemical. To be noted: MMP-2 2.7 nM.

MMP-12, sequence (P39900 106-470): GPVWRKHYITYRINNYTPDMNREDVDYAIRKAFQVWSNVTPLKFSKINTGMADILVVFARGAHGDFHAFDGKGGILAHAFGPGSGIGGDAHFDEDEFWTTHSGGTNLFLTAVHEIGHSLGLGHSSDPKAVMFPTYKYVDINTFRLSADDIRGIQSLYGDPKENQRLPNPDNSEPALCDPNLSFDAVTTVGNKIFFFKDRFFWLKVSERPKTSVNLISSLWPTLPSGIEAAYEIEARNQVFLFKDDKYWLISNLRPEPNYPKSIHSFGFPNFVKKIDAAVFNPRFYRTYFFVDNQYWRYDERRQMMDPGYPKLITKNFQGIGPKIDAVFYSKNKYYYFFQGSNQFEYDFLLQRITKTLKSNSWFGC

For the compound `O=C(NCc1ccc(-c2ccccc2)cc1)c1cccc(=O)n1O` [1,2-HOPO-2], the “effect of large excess of MT on activity against MMP-12” value in experiment [1] (30 nM inhibitor, up to 9 μM MT (300 equiv over inhibitor)) is “did not perturb the activity”. Besides, the half-inhibitory concentration (IC50) in experiment [1] (read-out: IC50 against MMP-12) came to 30 nM.

For the compound `O=C(CCCCCCC(=O)Nc1ccccc1)NO` [SAHA, suberolylanilide hydroxamic acid], the “change in SAHA activity against HDAC-6 with increasing MT” value in experiment [2] is given as “no substantial decrease”. Also, the “change in SAHA activity against HDAC-1 with increasing MT” value in experiment [3] is given as “no substantial decrease”.

Regarding `COc1ccc(S(=O)(=O)N(Cc2cccnc2)[C@@H](C(=O)NO)C(C)C)cc1` [CGS], the “MMP-2 inhibition in the presence of combinations of competing proteins” value in experiment [4] (CGS 3 nM, MT, Mb, Tf, hCAII combinations 400 nM each) is reported as “no drop in inhibition”. Moreover, the “specificity for MMP-2 in the presence of excess MT” value in experiment [4] (CGS 3 nM or NSA 30 nM, MT up to 50 equiv over MPi) is “maintain their specificity”. Also, the “effect of Mb, Tf or hCAII as competing protein on MMP-2 inhibition” value in experiment [4] (NSA 30 nM or CGS 3 nM, up to 166 equiv over CGS, up to 50 equiv over NSA) is recorded as “not titrating the MPi away from the MMP-2 target”.
